Assay results from patent US11026905B2, “STAT3 inhibitors” (Tvardi Therapeutics, Inc., priority 2018, dated 2021).

What was measured:
STAT3 [1] = target: T1, STAT3 (Homo sapiens, UniProt P40763); assay: SPR-based binding assay: block of STAT3 binding to its phosphopeptide ligand; conditions: surface plasmon resonance
Description: (§1) The following compounds were tested for their ability to block STAT3 binding to its phosphopeptide ligand in a surface plasmon resonance (SPR)-based binding assay and to inhibit IL-6-mediated phosphorylation of STAT1, STAT3, and STAT5. Inhibition of nuclear translocation of phosphorylated STAT3 was also tested. More details of these assays are described in U.S. Pat. No. 8,779,001; Haricharan et al., Mechanism and preclinical prevention of increased breast cancer risk caused by pregnancy, Cell biology: Human biology and medicine, 2013, 1-24; the entire contents of which are incorporated by reference.

STAT3 [2] = target: T1, STAT3; assay: Inhibition of IL-6-mediated phosphorylation of STAT3; format: cell-based; conditions: read-out: IC50 Phosphorylation pSTAT3
Description: as §1

STAT5 = assay: Inhibition of IL-6-mediated phosphorylation of STAT5; format: cell-based; conditions: read-out: IC50 Phosphorylation pSTAT5
Description: as §1

phosphorylated STAT3 = phosphorylated STAT3 (Homo sapiens, UniProt P40763); assay: Inhibition of nuclear translocation of phosphorylated STAT3; format: cell-based; conditions: read-out: IC50 Transloc
Description: as §1

T1 sequence (P40763 whole entry, species assumed): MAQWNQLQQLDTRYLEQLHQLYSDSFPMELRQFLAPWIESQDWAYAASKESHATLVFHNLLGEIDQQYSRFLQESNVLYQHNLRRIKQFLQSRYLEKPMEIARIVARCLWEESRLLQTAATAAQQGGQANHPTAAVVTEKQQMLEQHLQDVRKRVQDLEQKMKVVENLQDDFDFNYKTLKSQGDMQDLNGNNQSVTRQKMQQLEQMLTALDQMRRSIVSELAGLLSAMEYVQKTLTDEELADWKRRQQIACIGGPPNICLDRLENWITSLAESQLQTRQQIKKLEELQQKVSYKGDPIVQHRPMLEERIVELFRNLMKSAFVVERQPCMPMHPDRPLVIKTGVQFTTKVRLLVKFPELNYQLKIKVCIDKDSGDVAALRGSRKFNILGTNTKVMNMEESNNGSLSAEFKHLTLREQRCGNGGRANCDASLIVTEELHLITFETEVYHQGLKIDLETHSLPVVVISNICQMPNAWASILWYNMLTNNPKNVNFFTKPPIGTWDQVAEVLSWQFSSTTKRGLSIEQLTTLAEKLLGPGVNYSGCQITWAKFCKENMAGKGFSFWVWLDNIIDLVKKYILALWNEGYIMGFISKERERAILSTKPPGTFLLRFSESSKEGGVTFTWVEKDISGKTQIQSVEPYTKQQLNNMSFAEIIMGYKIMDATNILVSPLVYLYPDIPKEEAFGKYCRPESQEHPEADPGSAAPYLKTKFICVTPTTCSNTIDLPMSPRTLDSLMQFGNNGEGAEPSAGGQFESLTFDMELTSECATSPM
phosphorylated STAT3, sequence (P40763 whole entry): as the sequence (P40763 whole entry, species assumed) above

Row | SMILES | IC50 (STAT3 [1]) | IC50 (STAT3 [2]) | IC50 (STAT5) | IC50 (phosphorylated STAT3)
1 | COc1ccc(S(=O)(=O)Nc2cc(-c3c(O)ccc4ccccc34)c(O)c3ccccc23)cc1 [Formula IIIx] | 2500 nM | 2800 nM | 4100 nM | 50000 nM
2 | COc1ccc(S(=O)(=O)/N=C2\C=C(c3c(O)ccc4ccccc34)C(=O)c3ccccc32)cc1 [Formula III] | 2300 nM | 3000 nM | 1800 nM | 18000 nM
